According to ChEMBL document CHEMBL3046689, “Volatile aldehydes are promising broad-spectrum postharvest insecticides” (J Agric Food Chem, 2000):
In brackets after ≈: the same amount, converted by molar mass. Activity calls are given as the source filed them. The calls are words filed in the database; no cut-off is given here.

How the values were obtained:
Lactuca sativa [1] = assay: Phytotoxicity in naked Lactuca sativa (lettuce) assessed as change in visual quality after compound application through two-tier reduced pressure fumigation at 30 mmHg for 0.5 hr and then 760 mmHg for 1.5 hr at 23 +/- 1 degC after 2 hr; format: organism-based; details: in vivo
Lactuca sativa [2] = assay: Phytotoxicity in naked Lactuca sativa (lettuce) assessed as residual aldehyde odor after compound application through two-tier reduced pressure fumigation at 30 mmHg for 0.5 hr and then 760 mmHg for 1.5 hr at 23 +/- 1 degC after 2 hr; format: organism-based; details: in vivo
Pseudococcus affinis = assay: Insecticidal activity against Pseudococcus affinis; format: functional, organism-based
Myzus persicae [3] = assay: Insecticidal activity against Myzus persicae (green peach aphid) placed under third leaf of naked Iceburg lettuce heads and after compound application for 2 hr through two-tier reduced pressure fumigation at 30 mmHg for 0.5 hr and then 760 mmHg for 1.5 hr at 23 +/- 1 degC measured after 24 hr; format: functional; details: for LC50: Myzus persicae, read-out: LD50 (the source's name)
Myzus persicae [4] = assay: Insecticidal activity against Myzus persicae (green peach aphid) applied through two-tier reduced pressure fumigation at 30 mmHg for 0.5 hr and then 760 mmHg for 1.5 hr at 23 +/- 1 degC; format: functional
[5] = system: Frankliniella occidentalis; assay: Insecticidal activity against Frankliniella occidentalis (western flower thrips); format: functional, organism-based
Bemisia = assay: Insecticidal activity against Bemisia sp.; format: functional, organism-based
Pseudococcus viburni = assay: Insecticidal activity against Pseudococcus viburni; format: functional, organism-based
Brevicoryne brassicae = assay: Insecticidal activity against Brevicoryne brassicae (cabbage aphids); format: functional, organism-based
Tetranychus urticae = assay: Insecticidal activity against Tetranychus urticae (two-spotted spider mite); format: functional, organism-based

Compound | Activity (Lactuca sativa [1]) | Activity (Lactuca sativa [2]) | Activity (Pseudococcus affinis) | LD90 (Myzus persicae [3]) [mg/L] | CTP (Myzus persicae [4]) [mg/L.hr] | Activity [5] | Activity (Bemisia) | Activity (Pseudococcus viburni) | Activity (Brevicoryne brassicae) | Activity (Tetranychus urticae) | LC50 (Myzus persicae [3]) [mg/L]
CC(C)C=O [ISOBUTYRALDEHYDE] | Toxic | Toxic | Active | 224.1 | 9.2 | Active | Active | Active | inactive | inactive | –
CCC/C=C/C=O | Toxic | Toxic | Active | 54.4 | – | Active | Active | Active | inactive | inactive | 24.3 (≈ 248 µM)
CCCC(C)C=O (stereo not given) [2-METHYLPENTANAL] | Toxic | Toxic | Active | 54.2 | – | Active | Active | Active | inactive | inactive | 39.9 (≈ 398 µM)
CCC(C)C=O (stereo not given) [2-METHYLBUTANAL] | Toxic | Toxic | Active | 184.4 | – | Active | Active | Active | inactive | inactive | 138 (≈ 1610 µM)
CC(C)=CC=O [3-METHYL-(E)-2-BUTENAL] | Toxic | Toxic | Active | 139.1 | – | Active | Active | Active | inactive | inactive | 73.9 (≈ 879 µM)
CC/C=C(\C)C=O [2-methyl-(E)-2-pentenal] | Toxic | Toxic | Active | 85.8 | – | Active | Active | Active | inactive | inactive | 33.5 (≈ 341 µM)
CCCCC=O [PENTANAL] | Toxic | Toxic | Active | 115.7 | – | Active | Active | Active | inactive | inactive | 71.4 (≈ 829 µM)
